Assay results reported in US9353075B2, “Disubstituted beta-lactones as inhibitors of N-acylethanolamine acid amidase (NAAA)” (The Regents of the University of California, priority 2011, dated 2016).

Columns and labels:
[1] = test system: 48/80-induced scratching (mast cell degranulation); assay: Compound 48/80-induced scratching in mice; format: in vivo, mouse; conditions: topical, single dose
Experimental: The methods include the following. Itching in mice was induced with DNFB as previously described. Additional studies were done with 48/80 model (an inducer of mast cell degranulation). 48/80 was given subcutaneously (30 mg per kg).

[2] = Chemical stability in PBS buffer pH 7.4; format: physicochemical; conditions: phosphate-buffered saline, 0.01M PBS pH 7.4, 37° C., read-out: Stability in PBS buffer, pH 7.4 t1/2
Experimental: Chemical stability of select compounds was evaluated under physiological pH conditions (0.01M Phosphate-Buffered Saline, pH 7.4) for up to 24 h. Stock solutions of each compound (10 mM) were prepared freshly in DMSO. Each compound was incubated at a final concentration of 10 μM (1% DMSO) in pre-heated buffer (0.01M Phosphate-Buffered Saline (PBS), pH 7.4 at 37° C.). The sample solutions were divided into aliquots in glass vials (pre-heated at 37° C.) for each time point. The samples were maintained at 37° C. in the UPLC/MS Autosampler during the study (no shaking). A reference solution of each compound (final concentration: 10 μM at 1% DMSO) in pre-heated CH3CN (37° C.) was prepared from the stock solutions (10 mM in DMSO). The reference solutions were maintained at 37° C. in the UPLC/MS Autosampler during the study (no shaking). An internal standard (100 nM) was added to the sample and reference solutions. For each time point, the samples were analyzed directly by LC/MS without any further sample preparation. The samples were analyzed (triplicate injection) by monitoring the MS trace by Multiple Reaction Monitoring (MRM). The compound concentration (expressed as %) was calculated by dividing the peak area at each time point by the peak area at t=0 min. The reference solution was analyzed at the beginning (t=0 min.), and at the end of the study (t=24 h). The apparent half-lives (t1/2) of the disappearance of compound were calculated by a one-phase decay equation using a non-linear regression of compound concentration versus time.
The analyses were performed on a Waters ACQUITY UPLC/MS TQD system consisting of a TQD (Triple Quadropole Detector) Mass Spectrometer equipped with an Electrospray Ionization interface and a Photodiode Array Detector. The analyses were run on an ACQUITY UPLC BEH C18 1.7 μm 2.1×50 mm column with a VanGuard BEH C18 1.7 μm pre-column at 40° C. The mobile phase was 0.1% HCOOH in H2O (A) and 0.1% HCOOH in CH3CN (B) using a linear gradient: 0-0.2 min.: 5% B, 0.2-2.2 min.: 5-95% B, 2.2-2.3 min.: 95-5% B, 2.3-3 min.: 5% B with flow rate at 0.5 mL/min. […]

UVB-induced inflammation = assay: UV-B irradiation model in rats, plantar test; format: in vivo, rat
Experimental: Male Sprague Dawley rats (150-175 g, Charles River, Calco, Italy) were anaesthetized with a mixture of Tiletamine (15 mg/Kg) and Zolazepam (15 mg/Kg) administered in a single intra-peritoneal injection. Rats were then placed on their backs and shrouded in a UV opaque material with only the relevant surface of the plantar right hind paw exposed, perpendicular to the narrowband UVB light source situated above the level of the limb. The UVB source used for all experiments consisted of a bank of four TL01 fluorescent tubes (Philips, UK, λmax=312 nm) spaced 2.5 cm apart producing an even field of irradiation. The irradiance produced by the bulbs during each irradiation was determinate at the distance of the limb from the light source using a calibrate meter (I[…] with SEL240/UVB-1/TD filter, ABLE Instruments & Controls Ltd, UK). From this, the doses of UVB to which the rats were exposed were calculated. After plantar irradiation, nociceptive withdrawal responses to both thermal and mechanical stimuli were tested. Heat hypersensitivity was assessed using the rat plantar test equipment (Ugo Basile, Italy) following the method described by Hargreaves et al. (1988). […] Uninjured paw was always assessed first. […] The withdrawal threshold is calculated as the average of three consecutive tests with at list 5 minutes between each test. […]

SMILES: C[C@@H]1OC(=O)[C@@H]1NC(=O)OCCCCCc1ccccc1 [Example 6, 5-phenylpentyl-[(2S,3R)-2-methyl-4-oxooxetan-3-yl]-carbamate]
- Dose of maximal effect, 48/80-induced scratching [1]: 1%
- Lowest effective dose, 48/80-induced scratching [1]: 0.01%
- 48/80-induced scratching ([1]; 48/80 30 mg per kg s.c.): prevents 48/80-induced scratching
- half-life at 10 μM [2]: 1.7 h
- Thermal hyperalgesia induced by irradiation with 250 mJ/cm^2 of UVB (UVB-induced inflammation; 10 and 30% w/w, vs vehicle): significantly reduced
- UVB-induced inflammation (UVB-induced inflammation; topical suspension in vaseline oil plus 5% lauric acid): dose-dependently reduced the UVB-induced inflammation
